Values after ≈ are worked out from the molar mass of the structure shown. Where a name gives a salt, the structure may show the parent alone. Read-outs that look alike come from different tables or passages of the source. Values belong to the compound of their own block, whether it stands above or below them.
Key:
[1] = cited from earlier work
[2] = Water solubility study at room temperature by HPLC analysis of saturated water solutions; format: physicochemical
Procedure: A water solubility study at room temperature was performed comparing Mirabegron Form α and crystalline inclusion complexes of Mirabegron with β-cyclodextrin Forms I and II by HPLC analysis of saturated water solutions.
A slurring of Mirabegron Form α was performed under the same conditions.
A slurring of Mirabegron Form α (20 mg) was performed in the same conditions.

[3] = according to EP1440969A1, cited from earlier work
[4] = Kalariya et al., RSC Adv. 2015; cited from earlier work
[5] = Solubility tests performed by the present inventors; format: physicochemical
Text: Two different crystal forms of Mirabegron free base, named as α-form and β-form, were also disclosed in EP1440969A1.

HPLC peak area corresponding to Mirabegron ([2]; 20 mg stirred in 0.8 ml of water for 19h, mother liquor (Form I experiment)): 1728 counts
HPLC peak area corresponding to Mirabegron ([2]; 24 mg (Form α 20 mg) stirred in 1 ml of water for 19h, mother liquor (Form II experiment)): 1570 counts
SMILES: Nc1nc(CC(=O)Nc2ccc(CCNC[C@H](O)c3ccccc3)cc2)cs1 [Mirabegron Form α, 2-(2-amino-1,3-thiazol-4-yl)-N-[4-(2-{[(2R)-2-hydroxy-2-phenylethyl]amino}ethyl)phenyl]acetamide]
solubility in water (in words) ([1]; according to EP1440969A1): practically insoluble
hygroscopicity ([3]; listed as α-form): non-hygroscopic
stability of crystal form ([3]; listed as α-form): stable

solubility in water at room temperature [5]: less than 50 volumes
SMILES: Nc1nc(CC(=O)Nc2ccc(CCNC[C@H](O)c3ccccc3)cc2)cs1 [Mirabegron, 2-(2-amino-1,3-thiazol-4-yl)-N-[4-(2-{[(2R)-2-hydroxy-2-phenylethyl]amino}ethyl)phenyl]acetamide]
degradation under hydrolytic and oxidative stress conditions [4]: degrades
stability under thermal and photolytic conditions [4]: stable
solubility in water ([1]; free base, AusPar / FDA prescribing information): 82 µg/mL (≈ 207 µM)

SMILES: Nc1nc(CC(=O)Nc2ccc(CCNC[C@H](O)c3ccccc3)cc2)cs1 [dihydrochloride salt]
hygroscopicity [3]: strongly hygroscopic
stability of crystal form [3]: unstable

SMILES: Nc1nc(CC(=O)Nc2ccc(CCNC[C@H](O)c3ccccc3)cc2)cs1 [β-form, 2-(2-amino-1,3-thiazol-4-yl)-N-[4-(2-{[(2R)-2-hydroxy-2-phenylethyl]amino}ethyl)phenyl]acetamide]
hygroscopicity [3]: low hygroscopicity
stability of crystal form [3]: metastable

— patent EP3184516A1, “CRYSTALLINE INCLUSION COMPLEXES OF MIRABEGRON WITH BETA-CYCLODEXTRIN” (Enantia, S.L., priority 2015, dated 2017)
